One experiment concerns the target T1, bFGF (Homo sapiens, UniProt P09038).
T1 construct: purchased Sigma Chemical Co
Nature of the experiment: bFGF binding to silyl-heparin coated polystyrene wells, immunoassay. How it is done: Wells of 96 well polystyrene microtiter plates, with a well surface area of 0.32 cm^2, were coated with 30 μl of silyl heparin for 15 minutes at 37° C. After rinsing and air-drying, bFGF (Sigma Chemical Co.) in PBS/BSA was added in 150 μL aliquots in doubling dilutions. The plate was incubated at 37° C. for 1 hour and rinsed 5 times in PBS. An aliquot 150 μl of PBS/BSA containing 1:500 rabbit anti-FGF antibodies were added, incubated for 1 hour and rinsed. In some cases an irrelevant rabbit antibody was used at a similar concentration (rabbit anti-TGF-receptor II, Santa Cruz Biotechnology). An aliquot of PBS/BSA containing 1:500 HRPO-conjugated donkey anti-rabbit IgG added, and after incubation and rinsing ABTS-chromogen added. All antibody solutions were filtered through 0.2 micron filters prior to use. The absorbance was monitored at 405 nm. […] When anti-TGF-II (irrelevant antibody directed against the transforming growth factor receptor) was used instead of anti-FGF and at the same anti-dilutions, no bFGF was detected. When TGF-β, at a concentration of 40 ng was used as the growth factor molecule, no activity was detected with anti-bFGF antibodies.

The test system of experiment [1] is Bovine aorta endothelial cells. The experiment can be described thus: Capillary tube formation on coated low attachment wells. As to conditions: 5×10^3 cells per well; DMEM containing 10% FBS; 4 days; phase contrast microscopy. It is filed as cell-based. The procedure: Low attachment 96 well plates were coated with saline, silyl-heparin complex, silyl-heparin-fibrinogen complex or silyl-heparin-bFGF complex. Bovine aorta endothelial cells (5×10^3 cells) were seeded into each well in DMEM containing 10% FBS. The cells were allowed to grow for 4 days and the cultures examined by phase contrast microscopy.

Experiment [2] concerns Bovine aorta endothelial cells. The experiment can be described thus: Growth of endothelial cells across a porous membrane from coated sutures, crystal violet. As to conditions: coated suture separated from cells by 3 micron pore membrane; 4 days. In kind it is cell-based. How it is done:
Six-well cluster plates were seeded with 5×10^4 bovine aorta endothelial cells. Cell culture insert membranes (25 mm diameter) with 3 micron pores in the bottom were placed in each well. Suture material was coated with silyl-heparin-bFGF or silyl-heparin. 10 cm of suture material, either coated or uncoated, was placed in each well and medium added sufficient to cover the suture (3 mL total). One set of inserts containing an uncoated suture was spiked with 50 ng of bFGF by adding the bFGF directly to the medium and was used as a positive control. The cells were allowed to grow for 4 days, and were then fixed and stained with crystal violet. Thereafter, the stain was eluted in aqueous methanol and 0.4% SDS and monitored at 595 nm. bFGF from the silyl-heparin-bFGF coated suture was able to transit the separating permeable 3 micron membrane and act regionally to stimulate the growth of endothelial cells at the end of 4 days, as shown in FIG. 6.

Experiment [3] concerns the target T2, vascular endothelial growth factor (VEGF) (Homo sapiens, UniProt P15692).
T2 sequence (P15692 27-191 isoform P15692-4 limits assumed): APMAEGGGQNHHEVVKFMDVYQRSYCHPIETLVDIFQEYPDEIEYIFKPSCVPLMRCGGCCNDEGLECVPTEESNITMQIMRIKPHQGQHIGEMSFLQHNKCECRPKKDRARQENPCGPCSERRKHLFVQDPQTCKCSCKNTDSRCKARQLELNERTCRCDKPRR
Nature of the experiment: VEGF binding to silyl-heparin coated wells, immunoassay. As to conditions: anti-VEGF antibodies; absorbance 405 nm. How it is done: Wells of 96 well polystyrene microtiter plates were coated with 30 μL of silyl heparin for 15 minutes at 37° C. The wells were rinsed extensively in water and air-dried. The wells were blocked by adding 250 μL of PBS containing 1 % BSA for 30 minutes. After removing the blocking solution, VEGF in PBS/BSA was added in 100 μL and at the appropriate concentration. The plate was incubated at 37° C. for 1 hour and rinsed 5 times in water. An aliquot of PBS/BSA containing rabbit anti-VEGF antibodies (1:125) was added and the plate incubated for one hour. After rinsing in water, an aliquot of PBS/BSA containing horseradish peroxidase-conjugated anti-rabbit IgG (1:250) was added and incubated for one hour. After rinsing, 200 μL of chromogen (2,2′-azinobis 3-ethylbenzothiazoline-6-[…]) from a commercially available kit was added, the color developed, and the reaction stopped by adding 50 μL of aqueous 2% sodium dodecyl sulfate (SDS). The absorbance was monitored at 405 nm.

T1 sequence (P09038 143-288, species assumed): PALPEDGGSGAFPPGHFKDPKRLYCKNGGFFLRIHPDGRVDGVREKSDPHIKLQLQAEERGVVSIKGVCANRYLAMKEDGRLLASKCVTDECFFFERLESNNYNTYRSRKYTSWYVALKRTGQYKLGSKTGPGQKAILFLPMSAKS

Regarding “benzyl-(1,2 dimethyl)disilyl heparin [silyl-heparin]”, the “upper saturation limit of the silyl-heparin complex for bFGF” value on bFGF (color development linear at high concentrations) was “had not been reached”. Further, at bFGF (immunoassays), the “binding of bFGF to silyl-heparin complexes on a contacting surface” value was “readily bound”; the “binding of both fibrinogen and bFGF to heparin on a silyl-heparin complex” value was “without displacement of either”. Besides, the capillary tube formation entry in experiment [1] is listed as “Tubes did not form”. In addition, the “growth (cell number) of endothelial cells” value in experiment [2] is “did not result in an increase in cell number”. Besides, the “binding of VEGF to silyl-heparin” value in experiment [3] was “VEGF bound to silyl-heparin and the binding was linear”.

The record behind these values is US6921811B2, “Bioactive coating composition and methods” (BioSurface Engineering Technologies, Inc., priority 1998, dated 2005).
